Laboratory results: ChEMBL document CHEMBL4411298, “Small molecule-drug conjugates: A novel strategy for cancer-targeted treatment” (Eur J Med Chem, 2019)
Values belong to the compound of their own block, whether it stands above or below them.

Columns and labels:
KB [1] = test: Antitumor activity against human KB cells xenografted in mouse assessed as complete tumor reversion incidence at 0.5 umol/kg; format: functional
[2] = Half life in pH 7.4 buffer at 37 degC in presence of 8 mM DTT; format: physicochemical; conditions: pH 7.4 buffer with 8 mM DTT
[3] = Half life in pH 7.4 buffer at 37 degC in presence of GSH; format: physicochemical; conditions: pH 7.4 buffer with GSH
[4] = Drug metabolism assessed as half life for cleavage of disulfide bond at 1 mM pH 7.4 PBS in presence of 20 mM GSH at 37 degC
[5] = Drug metabolism assessed as half life for cleavage of disulfide bond at 1 mM pH 7.4 PBS in presence of DTT at 37 degC
Homo sapiens [6] = species: Homo sapiens; test: Antitumor activity against NSCLC patients assessed as overall survival in presence of docetaxel in phase 2b clinical trial; format: functional
Homo sapiens [7] = species: Homo sapiens; test: Antitumor activity against NSCLC patients assessed as progression-free survival in presence of docetaxel in phase 2b clinical trial; format: functional
Homo sapiens [8] = species: Homo sapiens; test: Binding affinity to folate receptor in human KB cells after 1 hr in presence of [3H]-FA by scintillation counting assay relative to control; format: cell-based
KB [9] = test: Growth inhibition of human KB cells; format: functional, cell-based
[10] = Prodrug conversion assessed as half life for parent compound release at pH 5; format: ADME
[11] = Drug metabolism assessed as half life for N-hydroxyethylvindesine release at pH 5
[12] = Drug metabolism assessed as half life for N-hydroxyethylvindesine release at pH 7.4
LNCaP = test: Growth inhibition of PSMA-positive human LNCAP cells; format: functional, cell-based

SMILES: CC[C@H](C)[C@H](NC(=O)[C@H]1CCCCN1C)C(=O)N(COC(=O)CC(C)C)[C@H](C[C@@H](OC(C)=O)c1nc(C(=O)N[C@@H](Cc2ccc(O)cc2)C[C@H](C)C(=O)NNC(=O)OCCSSC[C@H](NC(=O)[C@H](CC(=O)O)NC(=O)[C@H](CC(=O)O)NC(=O)[C@H](CCCNC(=N)N)NC(=O)[C@H](CC(=O)O)NC(=O)CC[C@H](NC(=O)c2ccc(NCc3cnc4nc(N)[nH]c(=O)c4n3)cc2)C(=O)O)C(=O)O)cs1)C(C)C
Activity (KB [1]): 80%

half-life [2]: < 5 min
half-life [3]: 45 min
SMILES: CC[C@]1(O)C[C@H]2CN(CCc3c([nH]c4ccccc34)[C@@](C(=O)OC)(c3cc4c(cc3OC)N(C)[C@H]3[C@@](O)(C(=O)NNC(=O)OCc5ccc(SSC[C@H](NC(=O)[C@H](CC(=O)O)NC(=O)[C@H](CC(=O)O)NC(=O)[C@H](CCCNC(=N)N)NC(=O)[C@H](CC(=O)O)NC(=O)CC[C@H](NC(=O)c6ccc(NCc7cnc8nc(N)[nH]c(=O)c8n7)cc6)C(=O)O)C(=O)O)cc5)[C@H](O)[C@]5(CC)C=CCN6CC[C@]43[C@@H]65)C2)C1

SMILES: CC[C@]1(O)C[C@H]2CN(CCc3c([nH]c4ccccc34)[C@@](C(=O)OC)(c3cc4c(cc3OC)N(C)[C@H]3[C@@](O)(C(=O)NNC(=O)OCCSSC[C@H](NC(=O)[C@H](CC(=O)O)NC(=O)[C@H](CC(=O)O)NC(=O)[C@H](CCCNC(=N)N)NC(=O)[C@H](CC(=O)O)NC(=O)CC[C@H](NC(=O)c5ccc(NCc6cnc7nc(N)[nH]c(=O)c7n6)cc5)C(=O)O)C(=O)O)[C@H](O)[C@]5(CC)C=CCN6CC[C@]43[C@@H]65)C2)C1
T1/2 [4]: 60 min
T1/2 [5]: 5 min
Survival (Homo sapiens [6]): 10.9 months
Survival (Homo sapiens [7]): 7.1 months
relative binding affinity (RBA) (Homo sapiens [8]): 0.47

SMILES: CC[C@]1(O)C[C@H]2CN(CCc3c([nH]c4ccccc34)[C@@](C(=O)OC)(c3cc4c(cc3OC)N(C)[C@H]3[C@@](O)(C(=O)NNC(=O)OCCSSC[C@H](NC(=O)c5ccc(NCc6cnc7nc(N)[nH]c(=O)c7n6)cc5)C(=O)O)[C@H](O)[C@]5(CC)C=CCN6CC[C@]43[C@@H]65)C2)C1
relative binding affinity (RBA) (Homo sapiens [8]): 0.046

half-life [2]: 30 min
SMILES: CC[C@]1(O)C[C@H]2CN(CCc3c([nH]c4ccccc34)[C@@](C(=O)OC)(c3cc4c(cc3OC)N(C)[C@H]3[C@@](O)(C(=O)NNC(=O)OC(C)C(C)SSC[C@H](NC(=O)[C@H](CC(=O)O)NC(=O)[C@H](CC(=O)O)NC(=O)[C@H](CCCNC(=N)N)NC(=O)[C@H](CC(=O)O)NC(=O)CC[C@H](NC(=O)c5ccc(NCc6cnc7nc(N)[nH]c(=O)c7n6)cc5)C(=O)O)C(=O)O)[C@H](O)[C@]5(CC)C=CCN6CC[C@]43[C@@H]65)C2)C1 (some centres undefined)

SMILES: Nc1nc(=O)c2nc(CNc3ccc(C(=O)N[C@@H](CCC(=O)O)C(=O)O)cc3)cnc2[nH]1
relative binding affinity (RBA) (Homo sapiens [8]): 1

SMILES: CCCC(=O)OCN(C(=O)[C@@H](NC(=O)[C@H]1CCCCN1C)[C@@H](C)CC)[C@H](C[C@@H](OC(C)=O)c1nc(C(=O)N[C@@H](Cc2ccc(O)cc2)C[C@H](C)C(=O)NNC(=O)OCCSSC[C@H](NC(=O)[C@H](CC(=O)O)NC(=O)[C@H](CC(=O)O)NC(=O)[C@H](CCCNC(=N)N)NC(=O)[C@H](CC(=O)O)NC(=O)CC[C@H](NC(=O)c2ccc(NCc3cnc4nc(N)[nH]c(=O)c4n3)cc2)C(=O)O)C(=O)O)cs1)C(C)C
Activity (KB [1]): 80%
IC50 (KB [9]): 7 nM

SMILES: CC[C@]1(O)C[C@H]2CN(CCc3c([nH]c4ccccc34)[C@@](C(=O)OC)(c3cc4c(cc3OC)N(C)[C@H]3[C@@](O)(C(=O)N/N=C(\C)c5ccc(N6C(=O)CC(SC[C@H](NC(=O)[C@H](CC(=O)O)NC(=O)[C@H](CC(=O)O)NC(=O)[C@H](CCCNC(=N)N)NC(=O)[C@H](CC(=O)O)NC(=O)CC[C@H](NC(=O)c7ccc(NCc8cnc9nc(N)[nH]c(=O)c9n8)cc7)C(=O)O)C(=O)O)C6=O)cc5)[C@H](O)[C@]5(CC)C=CCN6CC[C@]43[C@@H]65)C2)C1 (some centres undefined)
t1/2 [10]: 330 min

SMILES: CC[C@]1(O)C[C@H]2CN(CCc3c([nH]c4ccccc34)[C@@](C(=O)OC)(c3cc4c(cc3OC)N(C)[C@H]3[C@@](O)(C(=O)NCCOC(OC)c5ccc(OCCN6C(=O)CC(SC[C@H](NC(=O)[C@H](CC(=O)O)NC(=O)[C@H](CC(=O)O)NC(=O)[C@H](CCCNC(=N)N)NC(=O)[C@H](CC(=O)O)NC(=O)CC[C@H](NC(=O)c7ccc(NCc8cnc9nc(N)[nH]c(=O)c9n8)cc7)C(=O)O)C(=O)O)C6=O)cc5)[C@H](O)[C@]5(CC)C=CCN6CC[C@]43[C@@H]65)C2)C1 (some centres undefined)
T1/2 [11]: 25 min
T1/2 [12]: 1320 min

half-life [2]: 60 min
SMILES: CC[C@]1(O)C[C@H]2CN(CCc3c([nH]c4ccccc34)[C@@](C(=O)OC)(c3cc4c(cc3OC)N(C)[C@H]3[C@@](O)(C(=O)NNC(=O)OCCSSC(C)(C)[C@H](NC(=O)[C@H](CC(=O)O)NC(=O)[C@H](CC(=O)O)NC(=O)[C@H](CCCNC(=N)N)NC(=O)[C@H](CC(=O)O)NC(=O)CC[C@H](NC(=O)c5ccc(NCc6cnc7nc(N)[nH]c(=O)c7n6)cc5)C(=O)O)C(=O)O)[C@H](O)[C@]5(CC)C=CCN6CC[C@]43[C@@H]65)C2)C1

SMILES: CCCC(=O)OCN(C(=O)[C@@H](NC(=O)[C@H]1CCCCN1C)[C@@H](C)CC)[C@H](C[C@@H](OC(C)=O)c1nc(C(=O)N[C@@H](Cc2ccc(O)cc2)C[C@H](C)C(=O)NNC(=O)OCCSSC[C@H](NC(=O)[C@H](Cc2ccccc2)NC(=O)[C@H](CC(=O)O)NC(=O)CC[C@H](NC(=O)CC[C@@H](NC(=O)N[C@@H](CCC(=O)O)C(=O)O)C(=O)O)C(=O)O)C(=O)O)cs1)C(C)C
IC50 (LNCaP): 3 nM

half-life [2]: > 480 min
SMILES: CC[C@]1(O)C[C@H]2CN(CCc3c([nH]c4ccccc34)[C@@](C(=O)OC)(c3cc4c(cc3OC)N(C)[C@H]3[C@@](O)(C(=O)NNC(=O)OC(C)C(C)SSC(C)(C)[C@H](NC(=O)[C@H](CC(=O)O)NC(=O)[C@H](CC(=O)O)NC(=O)[C@H](CCCNC(=N)N)NC(=O)[C@H](CC(=O)O)NC(=O)CC[C@H](NC(=O)c5ccc(NCc6cnc7nc(N)[nH]c(=O)c7n6)cc5)C(=O)O)C(=O)O)[C@H](O)[C@]5(CC)C=CCN6CC[C@]43[C@@H]65)C2)C1 (some centres undefined)
